Consider one compound from US8124051B2, “Complex drug delivery composition and method for treating cancer” (priority 2003, dated 2012).

Series [1] has as its system xenografts of ovarian carcinoma cells. The experiment in a line: DOX treatment of mice xenografts of ovarian carcinoma cells. The following applies: up to 25 days of treatment. It counts as in vivo. From the text: (§1) It has been shown that prolonged exposure or high concentrations of anticancer drugs leads to the development of drug resistance (Minko, et al. (2001) Dis. Manag. Clin. Outcomes 3:48-54; Minko, et al. (1999) J. Controlled Rel. 59:133-148; Pakunlu (2003) Pharm. Res. 20:351-359; Minko, et al. (1999) Pharm. Res. 16:986-996; Minko, et al. (2001) J. Control. Rel. 71:227-237). To analyze antiapoptotic resistance, the degree of apoptosis to doxorubicin (DOX), a traditional, well-established anticancer drug, was determined. The enrichment of cell lysate and media by mono- and oligonucleosomes was measured using a cell death detection ELISA kit. The expression of genes was measured by reverse transcription PCR (RT-PCR) using β2-microglobulin (β2-m) as an internal standard. […] Similar results were obtained after repeated incubation of human ovarian carcinoma cells with low doses of DOX (Minko, et al. (1999) supra; Minko, et al. (1999) supra) and after treatment of mice xenografts of ovarian carcinoma cells with DOX. […] Thus, suppression of this antiapoptotic cellular defense mechanism is desirable.

The conditions of series [2]: healthy tissues and tumor; cited from earlier work.
Series [3] concerns human ovarian carcinoma cells. The experiment in a line: Apoptosis and BCL-2 expression after DOX (cell death ELISA, RT-PCR). It counts as cell-based.
Description: as §1
(In an ELISA, binding on a coated surface is turned into a signal by an enzyme label.)

In series [4] the test system is human ovarian carcinoma cells. Briefly: Cytotoxicity (IC50 dose) of Ant, Ant-BH3 peptide and DOX. It counts as cell-based. The following applies: Ovarian carcinoma cell; human ovarian carcinoma cells. The procedure:
By way of example, the effectiveness of a BH3 peptide ([…] SEQ ID NO:1) to increase cell death by inducing the mitochondrial dysfunction leading to necrosis was measured. BH3 peptide was delivered into human ovarian carcinoma cells by the Antennapedia (Ant) internalization sequence (Arg-Gln-Ile-lys-[…] SEQ ID NO:2). Mitochondrial function was assessed by flow cytometry analysis using the lipophilic cationic fluorescent probe 5,5′,6,6′-tetrachloro-1,1′,3,3′-tetraethylbenzimidazolcarbo-cyanine iodide (JC-1). This probe exists as a monomer, and upon excitation at 490 nm, emits light at 527 nm resulting in green fluorescence. At high mitochondrial transmembrane potential, JC-1 forms multimers, known as J-aggregates, and emits light at 590 nm upon excitation at 490 nm resulting in red fluorescence. Therefore, the red/green fluorescence ratio measured by flow cytometry reflects the number of functioning mitochondria. […] The effect of the Ant-BH3 peptide on mitochondrial transmembrane potential was also determined.
Cytotoxicity. The cytotoxicity of drugs were assessed using a modified MTT (3-(4,5-dimethylthiazol-2-yl)-2,5-diphenyltetrazolium bromide) assay (Kunath, et al. (2000) Eur. J. Pharm. Biopharm 49:11-15; Minko, et al. (1998) J. Controlled Rel. 54:223-233; Minko, et al. (1999) J. Controlled Rel. 59:133-148; Minko, et al. (2002) Cancer Chemother. Pharmacol. 50:143-150). […]

As to `COc1cccc2c1C(=O)c1c(O)c3c(c(O)c1C2=O)C[C@@](O)(C(=O)CO)C[C@@H]3O[C@H]1C[C@H](N)[C@H](O)[C@H](C)O1` [DOX, doxorubicin], the tumor size result in series [1] is “decreased the tumor size”. Besides, the tissue accumulation result in series [2] is given as “significant amount of free DOX accumulation in healthy tissues”. The cell response result was “overexpressed the BCL-2 gene and developed resistance to apoptosis” in series [3] (cells that survived exposure to high DOX concentrations); “responded to the treatment by apoptosis” in series [3] (low DOX concentrations). Further, the IC50 in series [4] turned out to be 484 ± 36.4 nM.

Usually IC50 stands for the concentration at which inhibition is half-maximal.
